Reference: US10881662B2, “Intracellular ATP enhancer” (StaGen Co., Ltd., priority 2016, dated 2021)

Assays:
serum uric acid = test: Test Example 1: serum uric acid value (uricase-peroxidase method); type: in vivo, human
Procedure: For a clinical chemistry automatic analyzer, a dry clinical chemistry analysis measuring unit manufactured by ARKRAY, Inc. was used, and the serum uric acid value was measured by using the uricase-peroxidase method.
The following administration test was conducted for 16 Japanese healthy adult males, one subject in Phase I and 15 subjects in Phase II divided into Group A to Group E with 3 subjects each. […]
After Phase I, the following contents were administered to three subjects in each group: […]
(§1) Group E: febuxostat 30 mg twice a day for 14 days.

urinary X = test: Test Example 1: urinary purine concentrations, xanthine; type: in vivo, human; conditions: for change in urinary X concentration: Week 0 to Week 2, FIG. 5, single administration or combined use, doses not distinguished
urinary Hx = test: Test Example 1: urinary purine concentrations, hypoxanthine; type: in vivo, human; conditions: Week 0 to Week 2, FIG. 5; single administration or combined use, doses not distinguished
Procedure: (§2) Various purines in peripheral blood were measured according to the Reference. Briefly, peripheral blood was collected with EDTA, 500 μL mixed with 500 μL ice cold 8% PCA, immediately vortexed for five seconds, and centrifuged at 12,000×g for 10 minutes at 4° C., and the supernatant was stored at −80° C. The processed sample was then dissolved, with 40 μL of 2M K2CO3 in 6 M KOH added to 650 μL of the solution to simultaneously precipitate the PCA and neutralize the solution. After this solution was centrifuged at 12,000×g for 10 minutes at 4° C., 160 μL of a mobile phase was added to 40 μL of the supernatant and applied to HPLC. The conditions of HPLC were also set according to the Reference. The amounts of purines are expressed in molar quantity contained in 1 L of whole blood.
The purine concentrations were measured by the same method as in (4).
(§3) The following administration test was conducted for 16 Japanese healthy adult males, one subject in Phase I and 15 subjects in Phase II divided into Group A to Group E with 3 subjects each.
(§4) After Phase I, the following contents were administered to three subjects in each group:
(§5) Group A: febuxostat 20 mg twice a day for 14 days;
(§6) Group B: inosine 500 mg of twice a day for 14 days;
(§7) Group C: febuxostat 20 mg and inosine 500 mg twice a day for 14 days;
Group D: febuxostat 20 mg and inosine 1000 mg twice a day for 14 days; and […]

urinary uric acid = test: Test Example 1: urinary uric acid concentration/creatinine concentration; type: in vivo, human; conditions: Week 0 to Week 2
Procedure: Since the urinary uric acid concentration varies with urine volume, a urinary uric acid amount was evaluated by using a urinary uric acid/creatinine value acquired by dividing by urinary creatinine concentration. The measurement method of the uric acid value was the same as that for the serum uric acid value.
as §3, §4, §5, §6, §7
(§8) Group D: febuxostat 20 mg and inosine 1000 mg twice a day for 14 days; and
as §1

blood ATP = test: Test Example 1: blood purine concentrations by HPLC, ATP; type: in vivo, human; conditions: Week 0 to Week 2
Procedure: as §2
(§9) Coolen E J, Arts I C, Swennen E L, Bast A, Stuart M A, Dagnelie P C. Simultaneous determination of adenosine triphosphate and its metabolites in human whole blood by RP-HPLC and UV-detection. J Chromatogr B Analyt Technol Biomed Life Sci. 2008 Mar. 15; 864(1-2): 43-51.
as §3, §4, §5, §6, §7, §8, §1

blood Hx (hypoxanthine) = test: Test Example 1: blood purine concentrations by HPLC, hypoxanthine; type: in vivo, human; conditions: Week 0 to Week 2
Procedure: as §2, §9, §3, §4, §5, §6, §7, §8, §1

blood X (xanthine) = test: Test Example 1: blood purine concentrations by HPLC, xanthine; type: in vivo, human; conditions: Week 0 to Week 2
Procedure: as §2, §9, §3, §4, §5, §6, §7, §8, §1

[1] = system: model mouse of amyotrophic lateral sclerosis; conditions: model mouse of ALS; cited from earlier work
multiple sclerosis = conditions: administration of inosine; cited from earlier work
[2] = system: erythrocytes with low ATP; conditions: erythrocytes left at low temperature for 20 to 30 days, inosine added, left to stand for 1 hour; cited from earlier work
Parkinson's disease = conditions: administration of inosine; cited from earlier work
[3] = system: patients with chronic stable angina; conditions: high-dose administration; cited from earlier work
[4] = Group E: febuxostat 30 mg twice a day for 14 days
[5] = Groups A-C: febuxostat 20 mg and/or inosine 500 mg twice a day for 14 days
[6] = Group E: febuxostat 60 mg/day alone for 14 days

Cc1nc(-c2ccc(OCC(C)C)c(C#N)c2)sc1C(=O)O [febuxostat]
serum uric acid value, lowest observed (serum uric acid; Phase II Group E: febuxostat 30 mg twice a day (60 mg/day) for 14 days): less than 2 mg/dL
serum uric acid value reduced by (serum uric acid; Phase II Group E: febuxostat 30 mg twice a day for 14 days): 3.93 mg/dL
serum uric acid value reduced by (serum uric acid; Phase II Groups A and C: febuxostat 20 mg alone or with inosine 500 mg, twice a day for 14 days): 2.53 mg/dL
serum uric acid value, not reduced to less than (serum uric acid; Phase II, any of the administration examples of 40 mg/day of febuxostat, 14 days): ≥ 2 mg/dL
maximum concentration of urinary X (urinary X; [4]): 867.7 µM
maximum concentration of urinary X (urinary X; [5]): 556.0 µM
change in urinary X concentration (urinary X): significantly increased
change in urinary Hx concentration (urinary Hx): moderate rise
change in urinary uric acid/creatinine (urinary uric acid; [4]): reduced
change in urinary uric acid/creatinine (urinary uric acid; [5]): reduced
change in blood ATP concentration (blood ATP; [4]): No certain tendency was observed
change in blood ATP concentration (blood ATP; [5]): not changed
change in blood Hx (hypoxanthine) concentration (blood Hx (hypoxanthine); [6]): slight rise
change in blood Hx (hypoxanthine) concentration (blood Hx (hypoxanthine); [5]): unchanged
change in blood X (xanthine) concentration (blood X (xanthine); [6]): rise
change in blood X (xanthine) concentration (blood X (xanthine); [5]): significantly increased
disease progression of amyotrophic lateral sclerosis [1]: inhibits disease progression

OC[C@H]1O[C@@H](n2cnc3c(O)ncnc32)[C@H](O)[C@@H]1O [inosine]
serum uric acid value increase due to inosine in the presence of febuxostat (serum uric acid; 1 g/day inosine in the presence of 40 mg/day of febuxostat (Group C versus Group A)): 0.3 mg/dL
serum uric acid value increase due to inosine in the presence of febuxostat (serum uric acid; 2 g/day inosine in the presence of 40 mg/day of febuxostat (Group D versus Group A)): 1.06 mg/dL
serum uric acid value raised by, on average (serum uric acid; Phase II Group B: inosine 500 mg twice a day (1 g per day) for 14 days, without febuxostat): 2.57 mg/dL
serum uric acid value, highest observed (up to) (serum uric acid; Phase II Group B: inosine 500 mg twice a day for 14 days): up to 8.1 mg/dL
maximum concentration of urinary X (urinary X; [5]): 61.9 µM
change in urinary X concentration (urinary X): no rise
change in urinary Hx concentration (urinary Hx): no rise
symptoms of multiple sclerosis (multiple sclerosis): alleviates symptoms
change in urinary uric acid/creatinine (urinary uric acid; [5]): significantly increased
change in blood ATP concentration (blood ATP; [5]): not changed
ATP in erythrocytes [2]: ATP increased
change in blood Hx (hypoxanthine) concentration (blood Hx (hypoxanthine); [5]): neither Hx nor X changed
symptoms of Parkinson's disease (Parkinson's disease): alleviates symptoms
change in blood X (xanthine) concentration (blood X (xanthine); [5]): neither Hx nor X changed

Oc1ncnc2[nH]ncc12 [allopurinol]
symptoms of chronic stable angina [3]: suppressed
